Source: patent US9480418B2, “Systems and methods for the screening and monitoring of inner ear function” (The United States Government as represented by the …, priority 2012, dated 2016)

System: hearing in the SRO frequencies
Test: Validation study: SRO hearing monitoring with OtoID in subjects receiving cisplatin
Type: in vivo, human
Conditions: 9 ears of 24 monitored; Validation sample
Source text: Validation Study, Sample Subjects. […] Subjects were prescreened using the electronic medical records for exclusionary criteria and to obtain treatment information. The subjects enrolled in the Validation study were part of a larger project to develop and evaluate a portable hearing testing device capable of measuring extended high frequency hearing. Except for the following two study-related differences, the same exclusionary criteria were used to recruit both groups of subjects (those participating in the Developmental or Validation studies). First, there was no exclusion for extent of hearing threshold loss in the Validation study sample. Second, subjects from the Validation study were tested on the chemotherapy unit or at bedside in the case of inpatients. There was no overlap of subjects in these two samples.
Validation Study; Equipment and Measurements. […] This device, the OtoID, was evaluated in an independent study for its ability to optimize the sensitivity, efficiency, and cost-effectiveness of ototoxicity early identification practices. […]
Sennheiser HDA 200 earphones were used with the OtoID to reduce the detrimental effects of environmental noise. […] The seven frequencies constituting each subject's individualized behavioral SRO were evaluated at each treatment interval. […] Subjects were also evaluated immediately following cessation of treatment and at 1 mo post-cessation of treatment. […]

Question: `N.N.[Cl][Pt][Cl]` [cisplatin] was tested. Which “ears in which hearing loss occurred” value did it give?
Answer: Its value is 38%.
